The values that follow come from ChEMBL document CHEMBL5291721, “A preclinical secondary pharmacology resource illuminates target-adverse drug reaction associations of marketed drugs” (Nat Commun, 2023).

The target of one test is T1, Adenosine receptor A3 (Homo sapiens, UniProt P0DMS8).
T1 sequence (P0DMS8 whole entry): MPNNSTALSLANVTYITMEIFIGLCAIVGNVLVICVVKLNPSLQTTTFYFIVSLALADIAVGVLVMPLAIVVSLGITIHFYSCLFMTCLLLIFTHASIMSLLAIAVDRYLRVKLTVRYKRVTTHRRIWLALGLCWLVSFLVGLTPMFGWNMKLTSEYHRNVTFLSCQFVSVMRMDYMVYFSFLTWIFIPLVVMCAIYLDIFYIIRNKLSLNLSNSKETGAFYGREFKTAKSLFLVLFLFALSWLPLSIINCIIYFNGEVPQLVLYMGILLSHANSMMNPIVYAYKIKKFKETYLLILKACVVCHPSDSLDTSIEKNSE

For test [1], the target named is T2, Muscarinic acetylcholine receptor M1 (Homo sapiens, UniProt P11229).
T2 sequence (P11229 whole entry): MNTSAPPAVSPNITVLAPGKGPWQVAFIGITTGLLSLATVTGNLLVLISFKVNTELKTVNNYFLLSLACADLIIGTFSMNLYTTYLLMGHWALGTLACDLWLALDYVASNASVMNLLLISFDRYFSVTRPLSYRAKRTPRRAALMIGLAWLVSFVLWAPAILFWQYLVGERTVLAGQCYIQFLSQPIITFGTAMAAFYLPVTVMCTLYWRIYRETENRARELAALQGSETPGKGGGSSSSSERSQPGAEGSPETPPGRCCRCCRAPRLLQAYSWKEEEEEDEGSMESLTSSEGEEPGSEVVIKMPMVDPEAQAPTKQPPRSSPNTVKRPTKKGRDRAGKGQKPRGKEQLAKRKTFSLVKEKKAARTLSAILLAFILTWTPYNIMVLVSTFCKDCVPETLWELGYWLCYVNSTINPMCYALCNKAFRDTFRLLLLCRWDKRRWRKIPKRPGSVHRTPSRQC
Format: functional, cell-based.

The target of another test is Prothrombin (Homo sapiens, UniProt P00734). The class given is functional.
Test [2] deals with T3, 5-hydroxytryptamine receptor 1A (Homo sapiens, UniProt P08908).
T3 sequence (P08908 whole entry): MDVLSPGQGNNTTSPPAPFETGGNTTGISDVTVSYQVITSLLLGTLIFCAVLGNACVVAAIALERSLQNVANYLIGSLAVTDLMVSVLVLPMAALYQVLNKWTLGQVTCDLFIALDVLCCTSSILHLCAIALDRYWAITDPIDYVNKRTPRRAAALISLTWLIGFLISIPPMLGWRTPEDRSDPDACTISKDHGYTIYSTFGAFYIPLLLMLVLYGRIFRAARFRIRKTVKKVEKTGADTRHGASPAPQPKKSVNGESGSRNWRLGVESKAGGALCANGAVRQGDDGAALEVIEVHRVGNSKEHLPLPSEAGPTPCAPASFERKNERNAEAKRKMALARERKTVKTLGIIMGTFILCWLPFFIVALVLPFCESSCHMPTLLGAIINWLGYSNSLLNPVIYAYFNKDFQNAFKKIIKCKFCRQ

Test [3] has as its target 5-hydroxytryptamine receptor 2B (Homo sapiens, UniProt P41595). Format: functional, cell-based.
Test [4] deals with Vascular endothelial growth factor receptor 2 (Homo sapiens, UniProt P35968). Format: functional.
Vascular endothelial growth factor receptor 2, sequence (P35968 whole entry): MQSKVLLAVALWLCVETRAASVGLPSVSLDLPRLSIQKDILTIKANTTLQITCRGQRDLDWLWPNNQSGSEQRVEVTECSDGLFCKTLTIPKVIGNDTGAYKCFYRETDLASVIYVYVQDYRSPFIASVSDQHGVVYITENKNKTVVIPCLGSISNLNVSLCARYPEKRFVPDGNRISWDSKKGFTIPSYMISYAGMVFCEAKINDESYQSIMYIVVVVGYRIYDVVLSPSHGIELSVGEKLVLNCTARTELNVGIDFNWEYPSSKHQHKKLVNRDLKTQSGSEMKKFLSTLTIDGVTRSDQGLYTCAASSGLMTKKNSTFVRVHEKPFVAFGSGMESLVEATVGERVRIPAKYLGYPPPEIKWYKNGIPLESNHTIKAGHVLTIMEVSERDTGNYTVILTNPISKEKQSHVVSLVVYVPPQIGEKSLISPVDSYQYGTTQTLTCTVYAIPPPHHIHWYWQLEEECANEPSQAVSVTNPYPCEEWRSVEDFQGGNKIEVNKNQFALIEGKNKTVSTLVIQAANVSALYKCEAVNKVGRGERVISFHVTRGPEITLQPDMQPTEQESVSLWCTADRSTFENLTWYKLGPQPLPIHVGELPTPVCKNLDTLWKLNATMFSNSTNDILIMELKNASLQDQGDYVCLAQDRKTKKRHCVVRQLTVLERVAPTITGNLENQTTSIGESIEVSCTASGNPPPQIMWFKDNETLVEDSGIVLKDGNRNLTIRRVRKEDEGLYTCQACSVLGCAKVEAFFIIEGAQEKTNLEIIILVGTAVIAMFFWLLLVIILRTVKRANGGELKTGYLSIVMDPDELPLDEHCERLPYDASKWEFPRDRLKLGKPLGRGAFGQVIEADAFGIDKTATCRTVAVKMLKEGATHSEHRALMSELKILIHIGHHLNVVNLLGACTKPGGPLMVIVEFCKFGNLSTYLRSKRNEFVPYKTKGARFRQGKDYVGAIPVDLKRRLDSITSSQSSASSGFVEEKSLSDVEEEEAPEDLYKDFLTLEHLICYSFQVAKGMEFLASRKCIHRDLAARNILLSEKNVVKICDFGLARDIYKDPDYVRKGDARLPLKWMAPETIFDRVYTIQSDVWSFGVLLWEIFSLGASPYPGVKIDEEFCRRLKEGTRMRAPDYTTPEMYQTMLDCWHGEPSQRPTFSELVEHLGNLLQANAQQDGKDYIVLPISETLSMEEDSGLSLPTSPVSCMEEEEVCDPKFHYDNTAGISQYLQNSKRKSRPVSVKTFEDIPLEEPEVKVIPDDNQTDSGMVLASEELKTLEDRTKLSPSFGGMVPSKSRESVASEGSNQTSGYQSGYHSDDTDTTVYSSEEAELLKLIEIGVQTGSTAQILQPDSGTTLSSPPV
The target in a further test is T4, Progesterone receptor (Homo sapiens, UniProt P06401).
T4 sequence (P06401 whole entry): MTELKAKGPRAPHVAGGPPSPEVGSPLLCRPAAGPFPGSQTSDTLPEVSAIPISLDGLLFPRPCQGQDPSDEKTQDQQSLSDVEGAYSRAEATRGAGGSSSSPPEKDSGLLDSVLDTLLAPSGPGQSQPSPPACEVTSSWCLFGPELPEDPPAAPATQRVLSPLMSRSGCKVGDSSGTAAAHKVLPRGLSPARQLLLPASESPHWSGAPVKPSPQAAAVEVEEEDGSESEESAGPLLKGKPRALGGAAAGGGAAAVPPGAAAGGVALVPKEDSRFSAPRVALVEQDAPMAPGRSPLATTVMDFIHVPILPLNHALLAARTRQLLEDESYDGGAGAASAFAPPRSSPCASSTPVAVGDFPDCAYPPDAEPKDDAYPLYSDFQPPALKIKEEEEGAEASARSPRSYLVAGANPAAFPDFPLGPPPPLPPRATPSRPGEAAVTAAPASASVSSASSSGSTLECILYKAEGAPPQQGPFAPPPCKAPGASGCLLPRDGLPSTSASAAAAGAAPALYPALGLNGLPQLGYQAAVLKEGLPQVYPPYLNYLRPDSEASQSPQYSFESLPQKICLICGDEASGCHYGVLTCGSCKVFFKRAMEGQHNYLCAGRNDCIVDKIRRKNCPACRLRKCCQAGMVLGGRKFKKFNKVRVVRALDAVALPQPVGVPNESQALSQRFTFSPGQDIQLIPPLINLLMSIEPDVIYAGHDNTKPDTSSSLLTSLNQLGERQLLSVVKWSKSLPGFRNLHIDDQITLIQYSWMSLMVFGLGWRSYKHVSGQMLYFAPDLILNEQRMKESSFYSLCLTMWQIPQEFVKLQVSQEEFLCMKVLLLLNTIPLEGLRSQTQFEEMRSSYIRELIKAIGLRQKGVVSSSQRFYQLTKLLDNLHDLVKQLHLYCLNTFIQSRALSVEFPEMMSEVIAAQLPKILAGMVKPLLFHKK

The target of test [5] is T5, Thromboxane A2 receptor (Homo sapiens, UniProt P21731).
T5 sequence (P21731 whole entry): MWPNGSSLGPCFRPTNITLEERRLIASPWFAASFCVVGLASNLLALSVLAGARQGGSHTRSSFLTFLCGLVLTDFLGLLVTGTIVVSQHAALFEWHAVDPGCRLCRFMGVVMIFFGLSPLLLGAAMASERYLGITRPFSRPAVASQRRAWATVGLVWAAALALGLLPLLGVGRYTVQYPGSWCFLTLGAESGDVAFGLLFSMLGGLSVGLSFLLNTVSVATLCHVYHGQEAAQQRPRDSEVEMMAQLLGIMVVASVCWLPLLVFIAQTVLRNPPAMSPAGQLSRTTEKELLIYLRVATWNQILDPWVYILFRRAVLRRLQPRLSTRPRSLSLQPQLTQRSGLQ
Format: functional, cell-based.

Test [6] addresses T5, Thromboxane A2 receptor. The class given is functional, cell-based. The source holds these as a separate data set.
Further: assay procedure not described here.

5-hydroxytryptamine receptor 2B, sequence (P41595 whole entry): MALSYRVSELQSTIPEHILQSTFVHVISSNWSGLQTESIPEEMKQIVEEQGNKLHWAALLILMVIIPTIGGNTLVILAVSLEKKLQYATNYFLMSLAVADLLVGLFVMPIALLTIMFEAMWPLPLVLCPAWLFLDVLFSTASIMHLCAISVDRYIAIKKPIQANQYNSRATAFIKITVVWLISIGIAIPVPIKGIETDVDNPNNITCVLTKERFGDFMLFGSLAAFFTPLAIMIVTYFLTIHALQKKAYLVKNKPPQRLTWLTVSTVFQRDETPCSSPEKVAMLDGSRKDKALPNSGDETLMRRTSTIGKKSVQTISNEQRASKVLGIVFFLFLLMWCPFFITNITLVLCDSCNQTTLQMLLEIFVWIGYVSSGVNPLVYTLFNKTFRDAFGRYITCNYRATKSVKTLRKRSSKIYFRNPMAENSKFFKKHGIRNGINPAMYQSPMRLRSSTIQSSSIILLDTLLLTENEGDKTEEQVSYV

In the case of `COc1ccc(C(=O)Nc2ccccc2CCC2CCCCN2C)cc1` (configuration not stated) [ENCAINIDE], the AC50 (at Adenosine receptor A3; in test [1]; at Prothrombin; in [2]; in [3]; in test [4]) was over 30 µM in each case. Also, the AC50 at Progesterone receptor, at Thromboxane A2 receptor [5] and on Thromboxane A2 receptor [6] was over 30 µM each time.

Consider `CCOc1ccccc1OCC1CNCCO1` (configuration not stated) [VILOXAZINE], for which the AC50 on Adenosine receptor A3 is over 30 µM; in [1], over 30 µM; at Prothrombin, over 30 µM; in test [2], 9.72 µM; in test [3], over 30 µM; in test [4], over 30 µM. In addition, the AC50 on Progesterone receptor, at Thromboxane A2 receptor [5] and on Thromboxane A2 receptor [6] was over 30 µM each time.

Turning to `Cc1cc(OP(=O)(O)O)c2ccccc2c1OP(=O)(O)O` [MENADIOL SODIUM DIPHOSPHATE], the AC50 (on Adenosine receptor A3; in [1]; at Prothrombin; in test [2]; in [3]; in [4]) was over 30 µM in each case. For the same molecule, the AC50 at Progesterone receptor, at Thromboxane A2 receptor [5] and at Thromboxane A2 receptor [6] was over 30 µM each time.

Turning to `C[S+](CC[C@H](N)C(=O)[O-])C[C@H]1O[C@@H](n2cnc3c(N)ncnc32)[C@H](O)[C@@H]1O` (some centres not stated) [ADEMETIONINE], the half-maximal activity concentration (AC50) on Adenosine receptor A3 was 0.174 µM; in test [1] it was over 30 µM; at Prothrombin it was over 30 µM; in test [2], over 30 µM; in test [3] it was over 30 µM; in [4], 19.4 µM. Moreover, the AC50 on Progesterone receptor, on Thromboxane A2 receptor [5] and on Thromboxane A2 receptor [6] was over 30 µM in each case.

With `CC(C)C[C@H]1C(=O)N2CCC[C@H]2[C@]2(O)O[C@](NC(=O)[C@@H]3C[C@@H]4c5cccc6[nH]cc(c56)C[C@H]4N(C)C3)(C(C)C)C(=O)N12` [DIHYDROERGOCRYPTINE], the AC50 was over 30 µM on Adenosine receptor A3; over 30 µM in test [1]; over 30 µM on Prothrombin; 0.0125 µM in test [2]; over 30 µM in [3]; over 30 µM in [4]. Besides, the AC50 at Progesterone receptor, on Thromboxane A2 receptor [5] and on Thromboxane A2 receptor [6] was over 30 µM each time.

`C[N+]1(CCCCC[N+]2(C)CCCC2)CCCC1` [PENTOLINIUM]: the AC50 (on Adenosine receptor A3; in test [1]; at Prothrombin; in test [2]; in test [3]; in test [4]) was over 30 µM throughout. Moreover, the AC50 on Progesterone receptor, at Thromboxane A2 receptor [5] and at Thromboxane A2 receptor [6] was over 30 µM throughout.

Consider `Nc1ccc(S(=O)(=O)c2cnc(N)s2)cc1` [THIAZOLSULFONE], for which the AC50 was 13.8 µM at Adenosine receptor A3; over 30 µM in [1]; over 30 µM on Prothrombin; over 30 µM in test [2]; over 30 µM in test [3]; over 30 µM in test [4]. Besides, the AC50 on Progesterone receptor, on Thromboxane A2 receptor [5] and on Thromboxane A2 receptor [6] was over 30 µM throughout.

For the molecule `CCOC(=O)/C=C1\SC(N2CCCCC2)C(=O)N1C` (configuration not stated) [ETOZOLIN], the AC50 (at Adenosine receptor A3; in test [1]; on Prothrombin; in [2]; in test [3]; in test [4]) was over 30 µM throughout. Besides, the AC50 at Progesterone receptor, on Thromboxane A2 receptor [5] and on Thromboxane A2 receptor [6] was over 30 µM each time.

`CC(C)(C)C(=O)OCOC(=O)[C@@H]1N2C(=O)[C@@H](NC(=O)[C@H](N)c3ccccc3)[C@H]2SC1(C)C` [PIVAMPICILLIN]: the AC50 (at Adenosine receptor A3; in test [1]; on Prothrombin; in test [2]; in test [3]; in test [4]) was over 30 µM each time. Further, the AC50 at Progesterone receptor, on Thromboxane A2 receptor [5] and at Thromboxane A2 receptor [6] was over 30 µM each time.

With `OC(CCN1CCCCC1)(c1ccccc1)c1ccccc1` [PRIDINOL], the AC50 on Adenosine receptor A3 was over 30 µM; in [1], over 30 µM; at Prothrombin, over 30 µM; in [2], 29.8 µM; in test [3], over 30 µM; in [4], over 30 µM. For the same molecule, the AC50 at Progesterone receptor, at Thromboxane A2 receptor [5] and at Thromboxane A2 receptor [6] was over 30 µM each time.

For `CC[C@H]1CN2CC[C@H]1C[C@H]2[C@H](O)c1ccnc2ccc(OC)cc12` [HYDROQUININE], the AC50 (on Adenosine receptor A3; in test [1]; at Prothrombin; in [2]; in test [3]; in [4]) was over 30 µM throughout. Further, the AC50 at Progesterone receptor, on Thromboxane A2 receptor [5] and at Thromboxane A2 receptor [6] was over 30 µM in each case.

With `N=c1ccn2c(n1)O[C@H]1[C@H](O)[C@@H](CO)O[C@H]12` [ANCITABINE], the AC50 (at Adenosine receptor A3; in test [1]; on Prothrombin; in test [2]; in test [3]; in [4]) was over 30 µM throughout. Besides, the AC50 at Progesterone receptor, at Thromboxane A2 receptor [5] and at Thromboxane A2 receptor [6] was over 30 µM throughout.

Take `CCOC(=O)[C@H](CCc1ccccc1)N[C@@H](C)C(=O)N1CC2(C[C@H]1C(=O)O)SCCS2`: the AC50 is over 30 µM at Adenosine receptor A3; over 30 µM in test [1]; over 30 µM on Prothrombin; over 30 µM in test [2]; over 30 µM in test [3]; over 10 µM in [4]. Further, the AC50 at Progesterone receptor, on Thromboxane A2 receptor [5] and on Thromboxane A2 receptor [6] was over 30 µM in each case.

In general, AC50 refers to the midpoint of the concentration-response curve, whichever way the signal moves. A higher AC50 goes with activity only at high concentration.
